Measured values taken from patent US11000033B2, “Ketone or oxime compound, and herbicide” (NISSAN CHEMICAL CORPORATION, priority 2014, dated 2021).

Key:
Type in all cases: in vivo
[1] = tested on: Echinochloa crus-galli var. crus-galli; assay: Test Example 3: herbicidal effect by foliage application, Wagner pot (symbol H); conditions: application herbicide amount 320 g/ha
How it was run: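 The compound, formulated as an emulsion and diluted with water to a predetermined rate, is applied uniformly to leaves of two-week-old seedlings growing in submerged alluvial soil at 25–30 °C. Rice is included. Each plant is assessed 3 weeks later using defined criteria.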

[2] = tested on: directly sowed rice plant; assay: Test Example 3: effect on crop by foliage application, Wagner pot (symbol b); conditions: application herbicide amount 320 g/ha
How it was run: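 Wagner pot (1/10000 are), alluvial soil, submerged 0.1–0.5 cm; sown E. crus-galli var. crus-galli, L. chinensis, C. difformis, rice; greenhouse 25–30 °C.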

[3] = tested on: Setaria viridis; assay: Test Example 4: herbicidal effect by soil treatment (symbol G); conditions: application herbicide amount 320 g/ha
How it was run: (§1)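 Seeds were sown in sterilized diluvial soil, covered with about 1.5 cm of soil, and the soil surface was sprayed with a water-diluted emulsion of the compound at a predetermined rate. Plants grew in a greenhouse at 25° C. to 30° C.; effects were scored visually 3 weeks after application.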

[4] = tested on: Apera spica-venti; assay: Test Example 4: herbicidal effect by soil treatment (symbol L); conditions: application herbicide amount 320 g/ha
How it was run: as §1

[5] = tested on: soybean; assay: Test Example 4: effect on crop by soil treatment (symbol d); conditions: application herbicide amount 320 g/ha
How it was run: (§2)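 The test used sterilized diluvial soil. Seed was set down in spots and overlaid with about 1.5 cm of soil before growth in a greenhouse kept at 25° C. to 30° C.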

[6] = tested on: wheat; assay: Test Example 4: effect on crop by soil treatment (symbol e); conditions: application herbicide amount 320 g/ha
How it was run: as §2

[7] = tested on: rapeseed; assay: Test Example 4: effect on crop by soil treatment (symbol g); conditions: application herbicide amount 320 g/ha
How it was run: as §2

[8] = tested on: Digitaria ciliaris; assay: Test Example 5: herbicidal effect by foliage application, plastic box (symbol F); conditions: 320 g/ha, 3 weeks after application
How it was run: (§3)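 Visual herbicidal score, taken three weeks post-application, of seedlings sprayed on the foliage with water-diluted emulsion at a predetermined amount; plants were 14 days old, greenhouse-raised at 25° C. to 30° C.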

[9] = tested on: Avena fatua; assay: Test Example 5: herbicidal effect by foliage application, plastic box (symbol I); conditions: 320 g/ha, 3 weeks after application
How it was run: as §3

[10] = tested on: Alopecurus myosuroides; assay: Test Example 5: herbicidal effect by foliage application, plastic box (symbol J); conditions: 320 g/ha, 3 weeks after application
How it was run: as §3

[11] = tested on: Lolium multiflorum Lam.; assay: Test Example 5: herbicidal effect by foliage application, plastic box (symbol K); conditions: 320 g/ha, 3 weeks after application
How it was run: as §3

[12] = tested on: Apera spica-venti; assay: Test Example 5: herbicidal effect by foliage application, plastic box (symbol L); conditions: 320 g/ha, 3 weeks after application
How it was run: as §3

[13] = tested on: Chenopodium album; assay: Test Example 5: herbicidal effect by foliage application, plastic box (symbol O); conditions: 320 g/ha, 3 weeks after application
How it was run: as §3

[14] = tested on: Stellaria media; assay: Test Example 5: herbicidal effect by foliage application, plastic box (symbol P); conditions: 320 g/ha, 3 weeks after application
How it was run: as §3

[15] = tested on: corn; assay: Test Example 5: effect on crop by foliage application, plastic box (symbol c); conditions: 320 g/ha, 3 weeks after application
How it was run: (§4)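 Plants were raised from seed in a greenhouse (25° C. to 30° C.) after sowing in a plastic box of sterilized diluvial soil.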

[16] = tested on: rice plant; assay: Test Example 5: effect on crop by foliage application, plastic box (symbol b); conditions: 320 g/ha, 3 weeks after application
How it was run: as §4

CON=C(CC1CC(O)=C(c2c(C)cc(C)cc2C)C1=O)C1CC1 (centres unmarked) [1-046]
herbicidal effect on H (Echinochloa crus-galli var. crus-galli), grade 0-5 [1]: 5 (Herbicidal ratio of 90% or more (almost completely withered))
effect on crop b (directly sowed rice plant), grade 0-5 [2]: 5 (Herbicidal ratio of 90% or more (almost completely withered))
G (Setaria viridis) herbicidal effect grade [3]: 4 (Herbicidal ratio of 70% or higher and lower than 90%)
L (Apera spica-venti) herbicidal effect grade [4]: 5 (Herbicidal ratio of 90% or more (almost completely withered))
d (soybean) effect on crop grade [5]: 0 (Herbicidal ratio of 5% or lower (almost no effect))
e (wheat) effect on crop grade [6]: 4 (Herbicidal ratio of 70% or higher and lower than 90%)
g (rapeseed) effect on crop grade [7]: 4 (Herbicidal ratio of 70% or higher and lower than 90%)
F: Digitaria ciliaris, herbicidal effect grade [8]: 4 (Herbicidal ratio of 70% or higher and lower than 90%)
I: Avena fatua, herbicidal effect grade [9]: 5 (Herbicidal ratio of 90% or more (almost completely withered))
J: Alopecurus myosuroides, herbicidal effect grade [10]: 5 (Herbicidal ratio of 90% or more (almost completely withered))
K: Lolium multiflorum Lam., herbicidal effect grade [11]: 5 (Herbicidal ratio of 90% or more (almost completely withered))
L: Apera spica-venti, herbicidal effect grade [12]: 5 (Herbicidal ratio of 90% or more (almost completely withered))
O: Chenopodium album, herbicidal effect grade [13]: 2 (Herbicidal ratio of 20% or higher and lower than 40%)
P: Stellaria media, herbicidal effect grade [14]: 2 (Herbicidal ratio of 20% or higher and lower than 40%)
c: corn, effect on crop grade [15]: 5 (Herbicidal ratio of 90% or more (almost completely withered))
b: directly sowed rice plant, effect on crop grade [16]: 5 (Herbicidal ratio of 90% or more (almost completely withered))

CON=C(CC1CC(OC(=O)COc2ccccc2)=C(c2c(C)cc(C)cc2C)C1=O)C1CC1 (centres unmarked) [1-063]
herbicidal effect on H (Echinochloa crus-galli var. crus-galli), grade 0-5 [1]: 5 (Herbicidal ratio of 90% or more (almost completely withered))
effect on crop b (directly sowed rice plant), grade 0-5 [2]: 5 (Herbicidal ratio of 90% or more (almost completely withered))
G (Setaria viridis) herbicidal effect grade [3]: 5 (Herbicidal ratio of 90% or more (almost completely withered))
L (Apera spica-venti) herbicidal effect grade [4]: 5 (Herbicidal ratio of 90% or more (almost completely withered))
d (soybean) effect on crop grade [5]: 0 (Herbicidal ratio of 5% or lower (almost no effect))
e (wheat) effect on crop grade [6]: 3 (Herbicidal ratio of 40% or higher and lower than 70%)
g (rapeseed) effect on crop grade [7]: 0 (Herbicidal ratio of 5% or lower (almost no effect))
F: Digitaria ciliaris, herbicidal effect grade [8]: 1 (Herbicidal ratio of 5% or higher and lower than 20%)
I: Avena fatua, herbicidal effect grade [9]: 5 (Herbicidal ratio of 90% or more (almost completely withered))
J: Alopecurus myosuroides, herbicidal effect grade [10]: 5 (Herbicidal ratio of 90% or more (almost completely withered))
K: Lolium multiflorum Lam., herbicidal effect grade [11]: 5 (Herbicidal ratio of 90% or more (almost completely withered))
L: Apera spica-venti, herbicidal effect grade [12]: 5 (Herbicidal ratio of 90% or more (almost completely withered))
O: Chenopodium album, herbicidal effect grade [13]: 0 (Herbicidal ratio of 5% or lower (almost no effect))
P: Stellaria media, herbicidal effect grade [14]: 0 (Herbicidal ratio of 5% or lower (almost no effect))
c: corn, effect on crop grade [15]: 3 (Herbicidal ratio of 40% or higher and lower than 70%)
b: directly sowed rice plant, effect on crop grade [16]: 5 (Herbicidal ratio of 90% or more (almost completely withered))

CON=C(C)CC1CC(OC(=O)COc2ccccc2)=C(c2c(C)cc(C)cc2C)C1=O (centres unmarked) [1-043]
herbicidal effect on H (Echinochloa crus-galli var. crus-galli), grade 0-5 [1]: 5 (Herbicidal ratio of 90% or more (almost completely withered))
effect on crop b (directly sowed rice plant), grade 0-5 [2]: 5 (Herbicidal ratio of 90% or more (almost completely withered))
G (Setaria viridis) herbicidal effect grade [3]: 5 (Herbicidal ratio of 90% or more (almost completely withered))
L (Apera spica-venti) herbicidal effect grade [4]: 5 (Herbicidal ratio of 90% or more (almost completely withered))
d (soybean) effect on crop grade [5]: 1 (Herbicidal ratio of 5% or higher and lower than 20%)
e (wheat) effect on crop grade [6]: 4 (Herbicidal ratio of 70% or higher and lower than 90%)
g (rapeseed) effect on crop grade [7]: 5 (Herbicidal ratio of 90% or more (almost completely withered))
F: Digitaria ciliaris, herbicidal effect grade [8]: 5 (Herbicidal ratio of 90% or more (almost completely withered))
I: Avena fatua, herbicidal effect grade [9]: 5 (Herbicidal ratio of 90% or more (almost completely withered))
J: Alopecurus myosuroides, herbicidal effect grade [10]: 5 (Herbicidal ratio of 90% or more (almost completely withered))
K: Lolium multiflorum Lam., herbicidal effect grade [11]: 5 (Herbicidal ratio of 90% or more (almost completely withered))
L: Apera spica-venti, herbicidal effect grade [12]: 5 (Herbicidal ratio of 90% or more (almost completely withered))
O: Chenopodium album, herbicidal effect grade [13]: 2 (Herbicidal ratio of 20% or higher and lower than 40%)
P: Stellaria media, herbicidal effect grade [14]: 4 (Herbicidal ratio of 70% or higher and lower than 90%)
c: corn, effect on crop grade [15]: 5 (Herbicidal ratio of 90% or more (almost completely withered))
b: directly sowed rice plant, effect on crop grade [16]: 5 (Herbicidal ratio of 90% or more (almost completely withered))

COCC(CC1CC(O)=C(c2c(C)cc(C)cc2C)C1=O)=NOC (centres unmarked) [1-040]
herbicidal effect on H (Echinochloa crus-galli var. crus-galli), grade 0-5 [1]: 5 (Herbicidal ratio of 90% or more (almost completely withered))
effect on crop b (directly sowed rice plant), grade 0-5 [2]: 5 (Herbicidal ratio of 90% or more (almost completely withered))
G (Setaria viridis) herbicidal effect grade [3]: 4 (Herbicidal ratio of 70% or higher and lower than 90%)
L (Apera spica-venti) herbicidal effect grade [4]: 5 (Herbicidal ratio of 90% or more (almost completely withered))
d (soybean) effect on crop grade [5]: 0 (Herbicidal ratio of 5% or lower (almost no effect))
e (wheat) effect on crop grade [6]: 0 (Herbicidal ratio of 5% or lower (almost no effect))
g (rapeseed) effect on crop grade [7]: 3 (Herbicidal ratio of 40% or higher and lower than 70%)
F: Digitaria ciliaris, herbicidal effect grade [8]: 4 (Herbicidal ratio of 70% or higher and lower than 90%)
I: Avena fatua, herbicidal effect grade [9]: 4 (Herbicidal ratio of 70% or higher and lower than 90%)
J: Alopecurus myosuroides, herbicidal effect grade [10]: 5 (Herbicidal ratio of 90% or more (almost completely withered))
K: Lolium multiflorum Lam., herbicidal effect grade [11]: 5 (Herbicidal ratio of 90% or more (almost completely withered))
L: Apera spica-venti, herbicidal effect grade [12]: 5 (Herbicidal ratio of 90% or more (almost completely withered))
O: Chenopodium album, herbicidal effect grade [13]: 0 (Herbicidal ratio of 5% or lower (almost no effect))
P: Stellaria media, herbicidal effect grade [14]: 0 (Herbicidal ratio of 5% or lower (almost no effect))
c: corn, effect on crop grade [15]: 3 (Herbicidal ratio of 40% or higher and lower than 70%)
b: directly sowed rice plant, effect on crop grade [16]: 5 (Herbicidal ratio of 90% or more (almost completely withered))

CC(CC1CC(O)=C(c2c(C)cc(C)cc2C)C1=O)=NOCc1ccccc1F (centres unmarked) [1-026]
herbicidal effect on H (Echinochloa crus-galli var. crus-galli), grade 0-5 [1]: 5 (Herbicidal ratio of 90% or more (almost completely withered))
effect on crop b (directly sowed rice plant), grade 0-5 [2]: 5 (Herbicidal ratio of 90% or more (almost completely withered))
G (Setaria viridis) herbicidal effect grade [3]: 5 (Herbicidal ratio of 90% or more (almost completely withered))
L (Apera spica-venti) herbicidal effect grade [4]: 5 (Herbicidal ratio of 90% or more (almost completely withered))
d (soybean) effect on crop grade [5]: 0 (Herbicidal ratio of 5% or lower (almost no effect))
e (wheat) effect on crop grade [6]: 2 (Herbicidal ratio of 20% or higher and lower than 40%)
g (rapeseed) effect on crop grade [7]: 3 (Herbicidal ratio of 40% or higher and lower than 70%)
F: Digitaria ciliaris, herbicidal effect grade [8]: 5 (Herbicidal ratio of 90% or more (almost completely withered))
I: Avena fatua, herbicidal effect grade [9]: 1 (Herbicidal ratio of 5% or higher and lower than 20%)
J: Alopecurus myosuroides, herbicidal effect grade [10]: 5 (Herbicidal ratio of 90% or more (almost completely withered))
K: Lolium multiflorum Lam., herbicidal effect grade [11]: 5 (Herbicidal ratio of 90% or more (almost completely withered))
L: Apera spica-venti, herbicidal effect grade [12]: 5 (Herbicidal ratio of 90% or more (almost completely withered))
O: Chenopodium album, herbicidal effect grade [13]: 3 (Herbicidal ratio of 40% or higher and lower than 70%)
P: Stellaria media, herbicidal effect grade [14]: 1 (Herbicidal ratio of 5% or higher and lower than 20%)
c: corn, effect on crop grade [15]: 3 (Herbicidal ratio of 40% or higher and lower than 70%)
b: directly sowed rice plant, effect on crop grade [16]: 5 (Herbicidal ratio of 90% or more (almost completely withered))
